Here are results for 21 molecules from article PMC10721898, “C5 methylation confers accessibility, stability and selectivity to picrotoxinin” (Nature Communications, 2023).

pIC50: −log10 of the molar value. Like-named read-outs stand apart in the source and are kept apart here.

By pIC50 is commonly meant the negative decadic logarithm of the IC50, by convention in mol/L.

For test [1], the target named is T1, Drosophila RDL (Drosophila melanogaster, UniProt P25123).
T1 construct: expressed in transfected cells; host or cells: Xenopus oocytes (Ecocyte, Austin, TX) microinjected with capped cRNA
T1 sequence (P25123 45-606): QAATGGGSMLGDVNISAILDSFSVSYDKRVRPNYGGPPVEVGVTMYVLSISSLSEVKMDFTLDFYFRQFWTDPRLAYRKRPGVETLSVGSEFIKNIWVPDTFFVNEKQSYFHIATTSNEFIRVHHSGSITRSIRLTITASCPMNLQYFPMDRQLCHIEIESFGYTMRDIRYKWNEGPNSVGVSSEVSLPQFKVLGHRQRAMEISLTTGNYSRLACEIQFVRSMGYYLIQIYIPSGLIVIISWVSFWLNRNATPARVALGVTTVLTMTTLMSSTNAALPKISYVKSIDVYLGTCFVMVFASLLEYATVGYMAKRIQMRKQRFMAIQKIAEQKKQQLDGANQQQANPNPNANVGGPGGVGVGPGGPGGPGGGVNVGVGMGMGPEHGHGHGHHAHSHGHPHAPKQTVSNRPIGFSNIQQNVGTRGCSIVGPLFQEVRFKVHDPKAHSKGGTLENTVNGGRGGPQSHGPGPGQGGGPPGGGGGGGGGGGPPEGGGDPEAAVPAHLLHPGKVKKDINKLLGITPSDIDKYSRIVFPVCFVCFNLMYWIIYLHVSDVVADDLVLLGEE
The test is described as follows: RDL receptors assay: two-electrode voltage clamp electrophysiology in Xenopus oocytes. Type of test: cell-based. On the procedure:
5. RDL receptors binding assay
The Drosophila RDL sequence (NP_01261616.1) was cloned into the pGH19 backbone via Gibson assembly for capped cRNA synthesis using the T7 mMessage mMachine kit (Invitrogen). cRNA samples were stored at - 80 °C until use. Ready to inject Xenopus oocytes were obtained from Ecocyte (Austin, TX) and microinjected using a Nanoinject III (Drummond Scientific) with 4 nL of cRNA (1 μg/μL). The oocytes were then incubated at 16 °C in ND96 storage solution (93.5 mM NaCl, 2 mM KCl, 1.8 mM CaCl 2·2H2O, 2 mM MgCl 2·6H2O, 5 mM HEPES at pH 7.5). Recording were made 1 -6 days post injection.
Electrophysiology experiments were performed using an automated two -electrode voltage clamp set -up (Roboocyte 2, Mutlichannel Systems). Recording head were filled with 3M KCl and gave resistan ce of 100-2000 kΩ in medium. Membrane potential was held at -60 mV and current signal was sampled at 20 kHz.
Experiments were performed at room temperature using Modified Barth’s Saline (MBS) (88 mM NaCl, 1 mM KCl, 2.4 mM NaHCO 3, 15 mM HEPES, 0.3 mM Ca(NO3)2, 0.41 mM CaCl 2, and 0.82 mM MgSO 4·7H2O at pH 7.4). Oocytes were perfused with MBS at 5 mL/min in all assays. GABA and all compounds were dissolved in MBS and a 0.1% DMSO negative control was utilized to correct for any solvent effect.
Initial block potential of each compound was assessed utilizing a pre -incubation method (MBS (30 sec), 10 μM GABA (15 sec), MBS wash (60 sec), compound (60 sec), compound + 10 μM GABA (15 sec), compound (60 sec), compound + 10 μM GABA (15 sec), MBS wash (60 sec) with 10 μM of each test compound. The maximum signal of the second co -application was compared to the initial GABA response to determine the % block and then standardized against the corresponding value of the 0.1% DMSO control. Dose responses were performed for any compound showing >50% block in the initial test using 10, 1, and 0.1 μM. The IC50 values were fit using an inhibitor vs response 4 -parameter fit (GraphPad Prism 8.1.2).
Supplementary Table 9. IC50 values of test compound
(§1) Compound IC50 (µM) Compound IC50 (µΜ)

The target in test [2] is rat GABAA ion channel. In words: Non-selective rat GABAA ion channel [3H]TBOB binding (antagonist radioligand) assay, rat cerebral cortex. Particulars: [3H]TBOB displacement, n = 1. As to the method: The structurally privileged 5-methyl series was assayed for binding to both GABAA receptors (rat cortex membrane preparations) and RDL (expressed in Xenopus oocytes) and compared directly to the parent PXN (C5-H) series. The parallel series of PXN and 5MePXN analogs allowed us to interrogate the effect of the synthetically-enabling and stabilizing C5 methyl. […]
4. Rat GABAA receptors binding assay
Non-selective rat GABAA ion channel [3H] TBOB binding (Antagonist Radioligand) assay was conducted by Eurofins Pharma Discovery Service of Eurofins Cerep, France.
Compound binding was calculated as a % inhibition of the binding of the radioactive ly labeled ligand [3H] TBOB (t‐[3H]Butylbicycloorthobenzoate) for rat GABAA ion channels.9 A 20.0 mM stock solution was prepared in DMSO from each test compound to evaluate radioligand displacement of [3H] TBOB from rat cerebral cortex GABAA receptors at different concentrations.
The results are expressed as a percent of control specific binding measured specific binding*100 […]
and as a percent inhibition of control specific binding
100 − (measured specific binding*100) […]
obtained in the presence of the test compounds.
The IC50 values (concentration causing a half -maximal inhibition of control specific binding) and Hill coefficients (nH) were determined by non -linear regression analysis of th e competition curves generated with mean replicate values using Hill equation curve fitting […]
where Y = specific binding, A = left asymptote of the curve, D = right asymptote of the curve , C = compound concentration, C 50 = IC50, and nH = slope factor. This analysis was performed using software developed at Cerep (Hill software) and validated by comparison with data generated by th e commercial software SigmaPlot® 4.0 for Windows ® (© 1997 by SPSS Inc.).
The inhibition constants (K i) were calculated using the Cheng Prusoff equation where L = concentration of radioligand in the assay, and KD = affinity of the radioligand for the recept or. A scatchard plot is used to determine the K D.
Supplementary Table 8. IC50 values of test compound
as §1

The subject of test [3] is GABAA and RDL receptors. Further details: method as in PMID 8982503. Particulars: cited from earlier work.
For test [4], the system named is RDL. Particulars: cited from earlier work.
[5] abbreviates: block of 10 μM GABA response, pre-incubation, -60 mV, Supplementary Table 9 (5MePXN series), n = 4, read-out: IC50.
[6] abbreviates: Supplementary Table 8 (5MePXN series).
[7] abbreviates: Supplementary Table 8 (PXN series).
The mark [8] stands for this setting: block of 10 μM GABA response, pre-incubation, -60 mV, Supplementary Table 9 (PXN series), n = 4, read-out: IC50.

As to `CC(C)(O)C1C2OC(=O)C1(C)C1(F)CC3OC34C(=O)OC2C41C` (stereo not shown) [6F5MePTN], the negative-log IC50 (pIC50) is 5.81 in test [1] (setting [5]) and less than 3.70 in test [2] (setting [6]).

In the case of `C=C(C)C1C2OC(=O)C1(C)C1(F)CC3OC34C(=O)OC2C41C` (stereo not shown) [6F5MePXN], the pIC50 was 6.23 in test [1] (setting [5]) and 4.85 in test [2] (setting [6]).

With `CC(C)(F)C1C2OC(=O)C1(C)C1(F)CC3OC34C(=O)OC2C41C` (stereo not shown) [6F12F5MePXN], the pIC50 in test [1] (setting [5]) was 6.00; in test [2] (setting [6]), less than 3.70.

As to `CC1(C2C3OC(=O)C2C2(O)CC4OC45C(=O)OC3C25C)CC1` (stereo not shown) [CypPXN], the pIC50 in test [1] is 6.16; in test [2] (setting [7]) it was 6.41.

With picrodendrin O, in test [3], the “selectivity index over GABAA” value is 76 fold.

`CC(C)C1C2OC(=O)C1C1(F)CC3OC34C(=O)OC2C14C` (stereo not shown) [6FHPXN]: the values for the pIC50 in test [1] (setting [8]) and in test [2] (setting [7]) were 6.25 and 5.19, respectively.

Regarding `CC(C)C1C2OC(=O)C1(C)C1(O)CC3OC34C(=O)OC2C41C` (stereo not shown) [H5MePXN], the pIC50 in test [1] (setting [5]) is less than 5.00; in test [2] (setting [6]), 4.64.

On to `CC(C)C1C2OC(=O)C1(C)C1(F)CC3OC34C(=O)OC2C41C` (stereo not shown) [6FH5MePXN], for which the pIC50 was 5.56 in test [1] (setting [5]) and 4.28 in test [2] (setting [6]).

Take `CC(C)(F)C1C2OC(=O)C1C1(O)CC3OC34C(=O)OC2C14C` (stereo not shown) [12FPXN]: the figures for the pIC50 in test [1] (setting [8]) and in test [2] (setting [7]) were less than 5.00 and 5.27, respectively.

`CC(C)(F)C1C2OC(=O)C1(C)C1(O)CC3OC34C(=O)OC2C41C` (stereo not shown) [12F5MePXN]: the pIC50 was less than 5.00 in test [1] (setting [5]) and 4.00 in test [2] (setting [6]).

Turning to `C=C(C)C1C2OC(=O)C1(C)C1(O)CC=C3C(=O)OC2C31C` (stereo not shown) [8,9do5MePXN], the pIC50 is 5.36 in test [1] (setting [5]) and 5.04 in test [2] (setting [6]).

With `CC(C)(C)C1C2OC(=O)C1(C)C1(O)CC3OC34C(=O)OC2C41C` (stereo not shown) [12Me5MePXN], the pIC50 in test [1] (setting [5]) was 5.54; in test [2] (setting [6]) it was 5.13.

Regarding `CC(C)(O)C1C2OC(=O)C1(C)C1(O)CC3OC34C(=O)OC2C41C` (stereo not shown) [5MePTN], the pIC50 in test [1] (setting [5]) was less than 5.00; in test [2] (setting [6]) it was less than 3.70.

Regarding `C=C(C)C1C2OC(=O)C1C1(O)CC=C3C(=O)OC2C31C` (stereo not shown) [8,9doPXN], the pIC50 in test [1] (setting [8]) was 5.58; in test [2] (setting [7]), 6.26.

On to `CC(C)(O)[C@@H]1[C@H]2OC(=O)[C@@H]1[C@]1(O)C[C@H]3O[C@]34C(=O)O[C@H]2[C@]14C` [PTN, picrotin, reference compound], for which the “reported activity at RDL” value in test [4] is recorded as “inactivity”. For the same molecule, the results for the pIC50 in test [1] and in test [2] (setting [7]) were 6.08 and 4.27, respectively.

With `CC(C)(C)C1C2OC(=O)C1C1(O)CC3OC34C(=O)OC2C14C` (stereo not shown) [12MePXN], the pIC50 in test [1] (setting [8]) is 6.17; in test [2] (setting [7]) it was 6.51.

Regarding `CC(C)(F)C1C2OC(=O)C1C1(F)CC3OC34C(=O)OC2C14C` (stereo not shown) [6F12FPXN], the pIC50 was 5.65 in test [1] (setting [8]) and 4.49 in test [2] (setting [7]).

On to `C=C(C)C1C2OC(=O)C1C1(F)CC3OC34C(=O)OC2C14C` (stereo not shown) [6FPXN], for which, in test [4], the “reported activity at RDL” value is “lose channel blocking ability”. In addition, the figures for the pIC50 in test [1] (setting [8]) and in test [2] (setting [7]) were 5.98 and 6.37, respectively.

Take `CC(C)C1C2OC(=O)C1C1(O)CC3OC34C(=O)OC2C14C` (stereo not shown) [HPXN]: the negative-log IC50 (pIC50) in test [1] was 5.97; in test [2] (setting [7]) it was 6.00.

Consider `CC1(C2C3OC(=O)C2(C)C2(O)CC4OC45C(=O)OC3C52C)CC1` (stereo not shown) [Cyp5MePXN], for which the figures for the pIC50 in test [1] (setting [5]) and in test [2] (setting [6]) were 5.79 and 5.11, respectively.

With `CC(C)(O)C1C2OC(=O)C1C1(F)CC3OC34C(=O)OC2C14C` (stereo not shown) [6FPTN], the pIC50 in test [1] (setting [8]) was 5.31; in test [2] (setting [7]), 4.25.
